Drawing on patent US20230043863A1, “HETEROAROMATIC DERIVATIVES FOR USE AS REGULATOR, PREPARATION METHOD THEREFOR AND USE THEREOF” (JIANGSU HANSOH PHARMACEUTICAL GROUP CO., LTD., priority 2018, published 2023), this text covers IC50 and change in vivo for seven molecules.

One assay has as its target JAK1 (Homo sapiens, UniProt P23458). In words: JAK kinase activity inhibition, TR-FRET (JAK1). It counts as biochemical. As to conditions: TR-FRET kinase assay. In outline: (§1)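 TR-FRET read (≈620 and 665 nm) after EDTA quench and 1-24 h antibody detection at RT. Kinase 0.1-20 nM, peptide substrate + ATP, 0.5-5 h RT reaction in HEPES 50-250 mM, MgCl2 5-20 mM. IC50 from 4-parameter fit vs DMSO and no-kinase controls.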
On the technique in general: In TR-FRET formats the signal depends on donor and acceptor labels being close together.

The next assay addresses TYK2 (Homo sapiens, UniProt P29597). In words: JAK kinase activity inhibition, TR-FRET (TYK2). It counts as biochemical. To be noted: TR-FRET kinase assay. In outline:
as §1

Assay [1] has as its system JAK-STAT signal pathway of U266 cells. The experiment in a line: Inhibition of cellular JAK-STAT signal pathway (STAT3 phosphorylation) in U266 cells. It counts as cell-based, human. To be noted: Homo sapiens, U-266, INF-a 1000 U/mL stimulation. In a few lines: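 U266 cells (100-300 K/well) preincubated 2 h at room temperature with serially diluted compound, then stimulated 15 min with IFN-α at 1000 U/mL final. After lysis, STAT3 phosphorylation read by LANCE Ultra TR-FRET (Eu antibody 0.5 nM, ULight antibody 5 nM, overnight) at 665 nm; IC50 from 4-parameter fit of inhibition versus DMSO and negative controls.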

The test system of assay [2] is C57BL/6 mouse colitis model induced by DSS. In words: C57BL/6 mouse colitis model induced by DSS, daily disease index. It counts as in vivo. As to conditions: po, 216 h, 10 mg/kg p.o. BID, Day 0-9, vs vehicle group, read-out: reduction ratio of DAI AUC. The method, then: To evaluate the drug efficacy of the embodiment compound on the C57BL/6 mouse colitis model induced by DSS (dextran sulfate sodium).
According to the weight of the animal, BioBook software was used to randomly group the animals on day −1 to ensure that the weight values of each group of animals were similar to reduce deviation, and the grouping and dosing regimen are shown in the following Table.
Drinking water containing DSS: an appropriate amount of DSS powder was dissolved in the autoclaved drinking water to prepare a 2% DSS solution.
On day −1, the animals were equally divided into 12 groups with 10 animals in each group. (Refer to Table 1 for specific grouping scheme)
From 9:00 on day 0 to 9:00 on day 6, the mice in groups 2 to 9 were given 2% DSS aqueous solution for 6 days (from day 0 to day 6), after which the mice were allowed to freely drink normal water for 3 days (from 9:00 on day 6 to before necropsy on day 9). The day of modeling was counted as day 0. The DSS aqueous solution was wrapped in tin foil to protect it from light. The DSS aqueous solution was replaced every 2 days.
The mice in group 1 are allowed to drink normal water freely for 9 days (from 9:00 on day 0 to before necropsy on day 9).
The recording frequency was once a day, and 4 levels were rated according to the following standards:
Bloody stool (0: negative; 4: positive);
Stool score (0: normal; 2: loose stool; 4: diarrhea)
Daily Disease Index (DAI) was obtained by dividing the sum the scores of the above 3 parts by 3. DAI-time (day) curve based on the daily DAI score was plotted, and the peak area (AUC) under the curve was calculated. The reduction ratio of DAI AUC was calculated by comparing the administration group with the vehicle group, with a calculation formula of (DAI AUCadministration group-DAI AUCvehicle)/DAI AUCVehicle×100%

The target in a further assay is JAK2 (Homo sapiens, UniProt O60674). In words: JAK kinase activity inhibition, TR-FRET (JAK2). It counts as biochemical. As to conditions: TR-FRET kinase assay. The method, then: (§2) Experimental objective: The objective of this test is to test the inhibitory effect of the compound on JAK kinase activity.
Sequence of JAK2 (O60674 whole entry): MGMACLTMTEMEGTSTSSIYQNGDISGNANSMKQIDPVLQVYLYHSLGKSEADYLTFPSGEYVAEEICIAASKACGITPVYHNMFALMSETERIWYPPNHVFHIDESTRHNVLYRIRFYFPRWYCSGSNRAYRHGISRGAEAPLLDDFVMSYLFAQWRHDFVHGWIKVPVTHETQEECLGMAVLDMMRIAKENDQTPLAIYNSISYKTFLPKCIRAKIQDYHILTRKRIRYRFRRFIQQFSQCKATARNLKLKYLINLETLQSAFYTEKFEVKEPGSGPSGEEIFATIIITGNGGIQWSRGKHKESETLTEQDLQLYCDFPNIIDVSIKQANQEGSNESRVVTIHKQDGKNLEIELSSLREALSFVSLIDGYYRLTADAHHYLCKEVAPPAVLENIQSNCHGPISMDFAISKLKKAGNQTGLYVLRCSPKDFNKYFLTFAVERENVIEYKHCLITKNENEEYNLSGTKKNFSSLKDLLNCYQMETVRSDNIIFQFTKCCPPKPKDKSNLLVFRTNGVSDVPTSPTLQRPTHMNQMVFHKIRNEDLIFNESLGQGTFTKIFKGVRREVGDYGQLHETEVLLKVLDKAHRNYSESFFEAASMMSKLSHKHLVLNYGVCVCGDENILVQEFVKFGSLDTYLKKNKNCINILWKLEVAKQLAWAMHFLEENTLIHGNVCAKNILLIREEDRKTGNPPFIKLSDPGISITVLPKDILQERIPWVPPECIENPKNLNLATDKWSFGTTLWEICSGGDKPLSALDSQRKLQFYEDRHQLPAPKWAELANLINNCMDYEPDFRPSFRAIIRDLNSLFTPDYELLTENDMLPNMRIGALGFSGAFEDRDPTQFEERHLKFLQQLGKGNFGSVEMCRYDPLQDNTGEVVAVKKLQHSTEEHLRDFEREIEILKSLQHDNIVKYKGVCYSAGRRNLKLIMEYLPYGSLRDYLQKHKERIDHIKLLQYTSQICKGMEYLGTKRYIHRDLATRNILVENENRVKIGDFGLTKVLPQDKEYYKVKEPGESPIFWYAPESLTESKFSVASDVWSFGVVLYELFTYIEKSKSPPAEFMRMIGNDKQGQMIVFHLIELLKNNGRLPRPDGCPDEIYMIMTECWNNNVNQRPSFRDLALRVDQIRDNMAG
(§3) Experimental method: the fluorescence resonance energy transfer (TR-FRET) method was used to test the inhibitory effect of the compound on JAK kinase activity, and the half inhibitory concentration IC50 of the compound on JAK kinase activity was obtained.
(§4) Kinase reaction was carried out in a white 384-well plate (PerkinElmer). 1-5 μL of different concentrations of the compound diluted with DMSO and ddH2O was added into each well, and 1-5 μL of the corresponding solvent was added to the positive control wells, followed by addition of 0.1-20 nM JAK kinase solution diluted with 1-5 μL of kinase buffer (HEPES 50-250 mM, MgCl2 5-20 mM, etc.) was added to each well. 1-5 μL of kinase buffer was added to the negative control well. 1-5 μL of substrate mixture containing peptide substrate and ATP was added. The plate was incubated at room temperature for 0.5-5 hours. […], EDTA and detection solution containing labeled antibody was added, and then the plate was incubated at room temperature for another 1-24 hours. The fluorescence signal value at about 620 nm and 665 nm of each well was measured by BioTek Synergy H1 plate reader, and the inhibition rate was calculated by the fluorescence signal value. According to the inhibition rate of different concentrations, the IC50 of the compound was obtained by curve fitting.
(§5) The percentage inhibition data of the wells treated with the compound was calculated with the positive control wells (DMSO control wells) and negative control wells (no kinase added) on the plate {% inhibition rate=100-[(test compound value-negative control value)]/(Positive control value-negative control value)×100}. IC50 value was calculated by using GraphPad prism to fit the data of different concentrations and corresponding percentage inhibition rates to a 4-parameter non-linear logic formula.

The target of the next assay is T1, JAK3 (Homo sapiens, UniProt P52333).
T1 sequence (P52333 1-1124): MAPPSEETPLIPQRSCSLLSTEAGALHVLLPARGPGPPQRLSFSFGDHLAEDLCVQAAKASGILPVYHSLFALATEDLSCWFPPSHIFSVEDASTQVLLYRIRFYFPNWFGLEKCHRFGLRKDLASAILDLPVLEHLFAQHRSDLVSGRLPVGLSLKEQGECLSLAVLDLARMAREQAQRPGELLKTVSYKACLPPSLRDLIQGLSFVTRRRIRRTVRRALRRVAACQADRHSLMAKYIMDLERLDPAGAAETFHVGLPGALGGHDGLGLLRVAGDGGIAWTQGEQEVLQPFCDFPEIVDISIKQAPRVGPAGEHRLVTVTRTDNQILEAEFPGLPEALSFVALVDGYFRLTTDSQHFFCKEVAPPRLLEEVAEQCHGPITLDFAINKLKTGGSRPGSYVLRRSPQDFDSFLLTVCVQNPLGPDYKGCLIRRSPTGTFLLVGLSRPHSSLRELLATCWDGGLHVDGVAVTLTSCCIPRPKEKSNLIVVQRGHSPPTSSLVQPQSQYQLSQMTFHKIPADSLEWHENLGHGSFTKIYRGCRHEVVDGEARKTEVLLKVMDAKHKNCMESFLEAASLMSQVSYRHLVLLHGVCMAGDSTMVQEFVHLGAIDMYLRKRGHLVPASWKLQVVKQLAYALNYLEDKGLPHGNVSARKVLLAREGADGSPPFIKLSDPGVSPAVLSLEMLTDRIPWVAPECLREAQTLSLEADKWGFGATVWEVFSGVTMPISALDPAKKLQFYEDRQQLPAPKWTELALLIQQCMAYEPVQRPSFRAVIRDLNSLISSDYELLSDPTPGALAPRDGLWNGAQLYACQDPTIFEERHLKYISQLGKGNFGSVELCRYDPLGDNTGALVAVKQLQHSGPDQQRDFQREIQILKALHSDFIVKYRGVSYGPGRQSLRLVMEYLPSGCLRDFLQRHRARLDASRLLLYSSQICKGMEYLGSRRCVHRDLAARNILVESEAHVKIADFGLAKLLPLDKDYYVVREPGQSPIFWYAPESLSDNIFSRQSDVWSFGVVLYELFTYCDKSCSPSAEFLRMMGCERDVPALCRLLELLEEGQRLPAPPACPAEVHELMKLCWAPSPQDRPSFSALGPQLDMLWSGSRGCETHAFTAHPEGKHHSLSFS
The experiment in a line: JAK kinase activity inhibition, TR-FRET (JAK3). It counts as biochemical. To be noted: TR-FRET kinase assay. The method, then: as §2, §3, §4, §5

Sequence of JAK1 (P23458 whole entry): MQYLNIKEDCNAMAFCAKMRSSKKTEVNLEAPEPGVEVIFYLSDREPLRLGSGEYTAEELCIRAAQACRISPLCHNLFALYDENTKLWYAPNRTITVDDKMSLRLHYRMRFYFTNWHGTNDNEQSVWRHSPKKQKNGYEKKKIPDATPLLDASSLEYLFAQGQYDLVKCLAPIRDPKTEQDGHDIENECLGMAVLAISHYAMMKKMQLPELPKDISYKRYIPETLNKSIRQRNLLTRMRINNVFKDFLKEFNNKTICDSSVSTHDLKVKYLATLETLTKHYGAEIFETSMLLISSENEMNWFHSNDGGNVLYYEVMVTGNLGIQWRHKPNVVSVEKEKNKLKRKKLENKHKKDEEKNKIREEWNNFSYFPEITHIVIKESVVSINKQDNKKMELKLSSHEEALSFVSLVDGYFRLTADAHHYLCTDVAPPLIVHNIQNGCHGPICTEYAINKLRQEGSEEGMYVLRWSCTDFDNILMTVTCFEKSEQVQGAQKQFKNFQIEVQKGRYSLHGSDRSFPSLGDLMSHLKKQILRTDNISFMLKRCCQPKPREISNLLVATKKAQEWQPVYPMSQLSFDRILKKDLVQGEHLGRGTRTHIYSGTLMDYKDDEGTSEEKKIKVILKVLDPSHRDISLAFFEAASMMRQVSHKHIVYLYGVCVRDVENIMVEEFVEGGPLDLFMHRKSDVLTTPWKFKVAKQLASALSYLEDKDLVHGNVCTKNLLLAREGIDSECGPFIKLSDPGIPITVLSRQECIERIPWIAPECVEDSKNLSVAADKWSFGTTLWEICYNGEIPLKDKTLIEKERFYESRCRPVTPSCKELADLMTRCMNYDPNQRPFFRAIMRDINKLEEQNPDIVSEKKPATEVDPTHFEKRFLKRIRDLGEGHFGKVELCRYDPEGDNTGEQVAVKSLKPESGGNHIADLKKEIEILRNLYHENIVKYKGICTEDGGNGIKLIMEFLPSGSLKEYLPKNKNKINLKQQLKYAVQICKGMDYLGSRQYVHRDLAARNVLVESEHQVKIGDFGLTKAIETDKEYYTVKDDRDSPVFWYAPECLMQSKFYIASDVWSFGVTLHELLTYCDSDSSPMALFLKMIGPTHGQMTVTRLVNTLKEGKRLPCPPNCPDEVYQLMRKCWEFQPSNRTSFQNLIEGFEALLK
Sequence of TYK2 (P29597 whole entry): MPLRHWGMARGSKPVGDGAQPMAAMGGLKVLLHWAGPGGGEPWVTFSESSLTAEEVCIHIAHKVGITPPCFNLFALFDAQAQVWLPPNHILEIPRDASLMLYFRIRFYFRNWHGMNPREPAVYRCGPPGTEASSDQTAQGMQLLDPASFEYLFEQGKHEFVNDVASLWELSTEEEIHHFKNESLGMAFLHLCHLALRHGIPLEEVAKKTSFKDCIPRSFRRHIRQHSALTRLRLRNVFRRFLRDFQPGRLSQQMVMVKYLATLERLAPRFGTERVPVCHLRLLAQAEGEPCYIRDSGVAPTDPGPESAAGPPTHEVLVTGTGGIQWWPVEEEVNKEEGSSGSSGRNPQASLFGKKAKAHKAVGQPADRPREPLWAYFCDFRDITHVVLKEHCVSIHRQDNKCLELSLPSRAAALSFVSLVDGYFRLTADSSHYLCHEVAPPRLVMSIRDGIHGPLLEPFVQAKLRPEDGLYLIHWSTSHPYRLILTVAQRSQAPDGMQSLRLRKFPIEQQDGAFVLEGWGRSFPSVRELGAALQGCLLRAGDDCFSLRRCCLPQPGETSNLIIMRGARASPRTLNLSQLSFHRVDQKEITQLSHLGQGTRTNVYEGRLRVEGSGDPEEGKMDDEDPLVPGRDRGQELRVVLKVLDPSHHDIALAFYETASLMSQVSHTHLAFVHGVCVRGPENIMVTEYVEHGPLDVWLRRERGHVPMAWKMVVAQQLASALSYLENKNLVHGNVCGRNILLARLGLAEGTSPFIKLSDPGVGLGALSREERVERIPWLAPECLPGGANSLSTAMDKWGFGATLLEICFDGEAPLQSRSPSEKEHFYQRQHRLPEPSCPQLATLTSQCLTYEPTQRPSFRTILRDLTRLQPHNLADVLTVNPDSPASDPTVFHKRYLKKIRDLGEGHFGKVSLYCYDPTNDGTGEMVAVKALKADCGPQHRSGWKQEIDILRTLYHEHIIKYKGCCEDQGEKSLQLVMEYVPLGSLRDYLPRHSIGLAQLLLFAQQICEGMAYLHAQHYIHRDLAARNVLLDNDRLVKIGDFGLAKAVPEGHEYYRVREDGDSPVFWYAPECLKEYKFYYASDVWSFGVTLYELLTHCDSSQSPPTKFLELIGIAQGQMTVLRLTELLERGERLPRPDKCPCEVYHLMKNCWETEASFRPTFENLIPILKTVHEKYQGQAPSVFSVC

Broadly, the IC50 is the midpoint of a concentration-inhibition curve. `Cc1cc(Nc2nc(N[C@@H]3C[C@H]4CC[C@@H](C3)N4CCC#N)nc3sccc23)n[nH]1` [Embodiment 62, 3-((3-exo)-3-((4-((5-methyl-1H-pyrazol-3-yl)amino)thieno[2,3-d]pyrimidin-2-yl)amino)-8-azabicyclo[3.2.1]oct-8-yl)propionitrile]: the concentration for half-maximal inhibition (IC50) on JAK1 is 0.08 nM; on TYK2, 0.17 nM; in assay [1], 1.9 nM. In assay [2], the change in vivo at 10 mg/kg was -32.2%.
Consider `Cc1cc(Nc2nc(N(C)[C@@H]3C[C@H]4CCC[C@@H](C3)N4S(=O)(=O)N3CC(C#N)C3)nc3sccc23)n[nH]1` [Embodiment 239, 1-(((3-exo)-3-(methyl(4-((5-methyl-1H-pyrazol-3-yl)amino)thieno[2,3-d]pyrimidin-2-yl)amino)-9-azabicyclo[3.3.1]non-9-yl)sulfonyl)azacyclobutane-3-nitrile], for which the IC50 on JAK1 came to 0.13 nM; on JAK2 it was 1.25 nM; on JAK3, 3.11 nM; on TYK2, 0.22 nM; in assay [1], 39 nM.
The corresponding values for `Cc1cc(Nc2nc(N(C)[C@@H]3C[C@H]4CC[C@@H](C3)N4S(=O)(=O)N3CC(C#N)C3)nc3sccc23)n[nH]1` [Embodiment 241, 1-(((3-exo)-3-(methyl(4-((5-methyl-1H-pyrazol-3-yl)amino)thieno[2,3-d]pyrimidin-2-yl)amino)-8-azabicyclo[3.2.1]oct-8-yl)sulfonyl)azetindin-3-formonitrile] are 0.15 nM, 1.39 nM, 7.35 nM, 0.22 nM and 115 nM.
The corresponding values for `Cc1cc(Nc2nc(N[C@@H]3C[C@H]4CCC[C@@H](C3)N4C(=O)CN(C)C)nc3sccc23)n[nH]1` [Embodiment 242, 2-(dimethylamine)-1-((3-exo)-3-((4-((5-methyl-1H-pyrazol-3-yl)amino)thieno[2,3-d]pyrimidin-2-yl)amino)-9-azabicyclo[3.3.1]non-9-yl)ethane-1-one] are 0.21 nM, 0.85 nM, 6.58 nM, 0.89 nM and 0.24 nM.
Taken in the same sequence, the figures for `Cc1cc(Nc2nc(N[C@@H]3C[C@H]4CC[C@@H](C3)N4C(=O)CN(C)C)nc3sccc23)n[nH]1` [Embodiment 243, 2-(dimethylamine)-1-((3-exo)-3-((4-((5-methyl-1H-pyrazol-3-yl)amino)thieno[2,3-d]pyrimidin-2-yl)amino)-8-azabicyclo[3.2.1]oct-8-yl)ethane-1-one] were 0.53 nM, 2.42 nM, 148 nM, 1.48 nM and 0.24 nM.
`Cc1cc(Nc2nc(N[C@@H]3C[C@H]4CC[C@@H](C3)N4S(=O)(=O)c3cccnc3)nc3sccc23)n[nH]1` [Embodiment 265, N^4-(5-methyl-1H-pyrazol-3-yl)-N^2-((3-exo)-8(pyridin-3ylsulfonyl)-8-azabicyclo[3.2.1]oct-3-yl)thieno[2,3-d]pyrimidin-2,4-diamine]: the IC50 worked out at 1.29 nM at JAK1; 1.81 nM on JAK2; 170 nM at JAK3; 1 nM on TYK2; 20.4 nM in assay [1].
The corresponding values for `N#CCCN1[C@@H]2CC[C@H]1C[C@H](Nc1nc(Nc3cc(CO)[nH]n3)c3ccsc3n1)C2` [Embodiment 273] are 1.28 nM, 2.96 nM, above 200 nM, 2.19 nM and 41.9 nM.
